Data set [1] has as its target MAO-B (amine oxidase [flavin-containing] B), Homo sapiens (UniProt P27338). Kind of data set: Ratio of Kinact to KI of human MAOB.
Data set [2] concerns the target MAO-A (amine oxidase [flavin-containing] A), Homo sapiens (UniProt P21397). As to the kind of experiment: Ratio of Kinact to KI of human MAOA.
The next data set in a line: Inhibition of human MAOA. To be noted: read-out: Kinact.
The next data set is described as follows: Inhibition of human MAOB. As to conditions: read-out: Kinact.

Each structure is given as a SMILES string.

Four molecules from ChEMBL document CHEMBL1144791, “Facile synthesis of substituted trans-2-arylcyclopropylamine inhibitors of the human histone demethylase LSD1 and monoamine oxidases A and B” (Bioorg Med Chem Lett, 2008) can be followed below.

Chain of MAO-B (amine oxidase [flavin-containing] B), Homo sapiens (P27338 whole entry, looked up): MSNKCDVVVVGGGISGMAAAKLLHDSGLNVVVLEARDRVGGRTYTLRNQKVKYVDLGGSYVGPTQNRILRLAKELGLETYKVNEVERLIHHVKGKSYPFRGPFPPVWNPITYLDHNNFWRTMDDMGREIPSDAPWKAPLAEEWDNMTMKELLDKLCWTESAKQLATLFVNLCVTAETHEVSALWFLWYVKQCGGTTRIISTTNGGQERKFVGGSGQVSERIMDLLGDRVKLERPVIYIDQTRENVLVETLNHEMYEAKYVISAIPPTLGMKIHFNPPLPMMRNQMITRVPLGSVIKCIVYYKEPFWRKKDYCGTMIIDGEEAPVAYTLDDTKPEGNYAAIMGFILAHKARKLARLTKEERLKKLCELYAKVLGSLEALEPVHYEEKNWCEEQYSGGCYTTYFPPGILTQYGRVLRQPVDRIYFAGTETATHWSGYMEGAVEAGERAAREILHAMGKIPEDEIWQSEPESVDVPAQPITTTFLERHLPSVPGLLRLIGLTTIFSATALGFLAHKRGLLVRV
Chain of MAO-A (amine oxidase [flavin-containing] A), Homo sapiens (P21397 whole entry, looked up): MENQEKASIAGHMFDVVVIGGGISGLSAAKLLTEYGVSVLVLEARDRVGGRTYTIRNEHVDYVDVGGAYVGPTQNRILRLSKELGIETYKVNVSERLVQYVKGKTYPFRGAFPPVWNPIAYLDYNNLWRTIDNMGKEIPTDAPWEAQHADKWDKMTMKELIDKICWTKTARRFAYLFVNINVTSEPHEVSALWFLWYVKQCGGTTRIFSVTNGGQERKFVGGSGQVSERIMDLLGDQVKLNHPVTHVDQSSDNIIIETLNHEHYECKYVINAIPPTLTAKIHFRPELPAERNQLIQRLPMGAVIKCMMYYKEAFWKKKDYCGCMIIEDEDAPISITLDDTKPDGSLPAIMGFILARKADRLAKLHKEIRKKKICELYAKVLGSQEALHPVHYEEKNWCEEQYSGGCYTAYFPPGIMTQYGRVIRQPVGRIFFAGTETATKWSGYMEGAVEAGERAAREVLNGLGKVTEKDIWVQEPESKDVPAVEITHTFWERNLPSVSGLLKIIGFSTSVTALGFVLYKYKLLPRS

What is called kinact/KI is the second-order rate constant of inactivation. With `NC1CC1(c1ccccc1)c1ccccc1` (stereo not drawn), the kinact/KI is less than 1.5 M⁻¹ s⁻¹ in data set [1] and less than 14 M⁻¹ s⁻¹ in data set [2].
`N[C@@H]1C[C@H]1c1ccsc1` (relative stereo): the inactivation efficiency (kinact/KI) is 22.3 M⁻¹ s⁻¹ in data set [1] and less than 18 M⁻¹ s⁻¹ in data set [2]. The KI (inactivation) in the data set “Inhibition of human MAOA” came to 1550 µM.
With `N[C@@H]1C[C@H]1c1ccc(C(F)(F)F)cc1` (relative stereo), the KI (inactivation) is 29.8 µM in “Inhibition of human MAOB” and 7.7 µM in “Inhibition of human MAOA”. For the same molecule, the values for the kinact/KI in data set [1] and in data set [2] were 7510 M⁻¹ s⁻¹ and 2860 M⁻¹ s⁻¹, respectively.
In the case of `N[C@@H]1C[C@H]1c1cccc2ccccc12` (relative stereo), the figures for the KI (inactivation) in “Inhibition of human MAOB” and in the data set “Inhibition of human MAOA” were 38.7 µM and 9.8 µM, respectively. The results for the kinact/KI in data set [1] and in data set [2] were 4840 M⁻¹ s⁻¹ and 362 M⁻¹ s⁻¹, respectively.
